From ChEMBL document CHEMBL3817807, “Sequence-specific DNA binding by long hairpin pyrrole-imidazole polyamides containing an 8-amino-3,6-dioxaoctanoic acid unit” (Bioorg Med Chem, 2016)
In brackets after ≈: the same amount, converted by molar mass. Activity calls are given as the source filed them. The rule behind the calls is not given here.

Assays:
[1] = Drug uptake in human MDA-MB-231 cell nucleus at 10 uM after 72 hrs by FITC/Hoechst 33342-staining based confocal microscopic analysis; type: ADME; conditions: mda-mb-231, 72 h
[2] = Binding affinity to 5'-biotin labeled GCGAGGCAGACACGCTTTTGCGTGTCTGCCTCGC-3' DNA (unknown origin) by SPR analysis
[3] = Binding affinity to 5'-biotin labeled GCGAGGCAGACACGCTTTTGCGTGTCTGCCTCGC-3' DNA (unknown origin) assessed as association rate by SPR analysis
[4] = Binding affinity to 5'-biotin labeled GCGAGGCAGACACGCTTTTGCGTGTCTGCCTCGC-3' DNA (unknown origin) assessed as dissociation rate by SPR analysis
[5] = Aqueous solubility of the compound […] assessed as saturation concentration by nanodrop analysis; type: physicochemical
[6] = Binding affinity to AATTTACCT oligonucleotide DNA sequence (unknown origin) at 50 nM incubated for 16 hrs by PCR based Bind-n-Seq analysis
[7] = Binding affinity to GAGTCTCCC oligonucleotide DNA sequence (unknown origin) at 50 nM incubated for 16 hrs by PCR based Bind-n-Seq analysis
[8] = Binding affinity to GTCTCCGAA oligonucleotide DNA sequence (unknown origin) at 50 nM incubated for 16 hrs by PCR based Bind-n-Seq analysis
[9] = Binding affinity to GGGCTAGAC oligonucleotide DNA sequence (unknown origin) at 50 nM incubated for 16 hrs by PCR based Bind-n-Seq analysis
[10] = Binding affinity to GGGCAGTCA oligonucleotide DNA sequence (unknown origin) at 50 nM incubated for 16 hrs by PCR based Bind-n-Seq analysis
[11] = Binding affinity to ATCGGCAGA oligonucleotide DNA sequence (unknown origin) at 50 nM incubated for 16 hrs by PCR based Bind-n-Seq analysis
[12] = Binding affinity to AGGCTCTCA oligonucleotide DNA sequence (unknown origin) at 50 nM incubated for 16 hrs by PCR based Bind-n-Seq analysis
[13] = Binding affinity to GTGAGCCTA oligonucleotide DNA sequence (unknown origin) at 50 nM incubated for 16 hrs by PCR based Bind-n-Seq analysis
[14] = Binding affinity to ACAGCCTCG oligonucleotide DNA sequence (unknown origin) at 50 nM incubated for 16 hrs by PCR based Bind-n-Seq analysis
[15] = Binding affinity to CTCTCTGCA oligonucleotide DNA sequence (unknown origin) at 50 nM incubated for 16 hrs by PCR based Bind-n-Seq analysis
[16] = Binding affinity to AGTCTGCCT oligonucleotide DNA sequence (unknown origin) at 50 nM incubated for 16 hrs by PCR based Bind-n-Seq analysis
[17] = Binding affinity to TGTCAGCCT oligonucleotide DNA sequence (unknown origin) at 50 nM incubated for 16 hrs by PCR based Bind-n-Seq analysis
[18] = Binding affinity to TGGCAGACT oligonucleotide DNA sequence (unknown origin) at 50 nM incubated for 16 hrs by PCR based Bind-n-Seq analysis
[19] = Binding affinity to TTGTCGGCC oligonucleotide DNA sequence (unknown origin) at 50 nM incubated for 16 hrs by PCR based Bind-n-Seq analysis
[20] = Binding affinity to AGGCAGACT oligonucleotide DNA sequence (unknown origin) at 50 nM incubated for 16 hrs by PCR based Bind-n-Seq analysis
[21] = Binding affinity to TGGCAGACA oligonucleotide DNA sequence (unknown origin) at 50 nM incubated for 16 hrs by PCR based Bind-n-Seq analysis
[22] = Binding affinity to TAGTCGGCC oligonucleotide DNA sequence (unknown origin) at 50 nM incubated for 16 hrs by PCR based Bind-n-Seq analysis
[23] = Binding affinity to AGTCGGCCT oligonucleotide DNA sequence (unknown origin) at 50 nM incubated for 16 hrs by PCR based Bind-n-Seq analysis
[24] = Binding affinity to AGTCAGCCT oligonucleotide DNA sequence (unknown origin) at 50 nM incubated for 16 hrs by PCR based Bind-n-Seq analysis
[25] = Binding affinity to ATGTCTGCC oligonucleotide DNA sequence (unknown origin) at 50 nM incubated for 16 hrs by PCR based Bind-n-Seq analysis
[26] = Binding affinity to AGGCTTACA oligonucleotide DNA sequence (unknown origin) at 50 nM incubated for 16 hrs by PCR based Bind-n-Seq analysis
[27] = Binding affinity to AGGCTGATA oligonucleotide DNA sequence (unknown origin) at 50 nM incubated for 16 hrs by PCR based Bind-n-Seq analysis
[28] = Binding affinity to AGACTGACA oligonucleotide DNA sequence (unknown origin) at 50 nM incubated for 16 hrs by PCR based Bind-n-Seq analysis
[29] = Binding affinity to AGACAGTCA oligonucleotide DNA sequence (unknown origin) at 50 nM incubated for 16 hrs by PCR based Bind-n-Seq analysis
[30] = Binding affinity to TGGTAGACA oligonucleotide DNA sequence (unknown origin) at 50 nM incubated for 16 hrs by PCR based Bind-n-Seq analysis
[31] = Binding affinity to CGGCTAACA oligonucleotide DNA sequence (unknown origin) at 50 nM incubated for 16 hrs by PCR based Bind-n-Seq analysis
[32] = Binding affinity to ATGCAGACA oligonucleotide DNA sequence (unknown origin) at 50 nM incubated for 16 hrs by PCR based Bind-n-Seq analysis
[33] = Binding affinity to ATGCAGTCA oligonucleotide DNA sequence (unknown origin) at 50 nM incubated for 16 hrs by PCR based Bind-n-Seq analysis
[34] = Binding affinity to TGGCTAACA oligonucleotide DNA sequence (unknown origin) at 50 nM incubated for 16 hrs by PCR based Bind-n-Seq analysis
[35] = Binding affinity to AGGCAGACA oligonucleotide DNA sequence (unknown origin) at 50 nM incubated for 16 hrs by PCR based Bind-n-Seq analysis

## CC(=O)Nc1cn(C)c(C(=O)Nc2cn(C)c(C(=O)NCCOCCOCC(=O)Nc3cn(C)c(C(=O)Nc4cc(C(=O)Nc5cc(C(=O)NCCCC(=O)Nc6cn(C)c(C(=O)Nc7cc(C(=O)Nc8cc(C(=O)NCCC(=O)Nc9cn(C)c(C(=O)Nc%10cc(C(=O)Nc%11cc(C(=O)NCCC(=O)NCCCN(C)CCCNC(=S)Nc%12ccc%13c(c%12)C(=O)OC%13%12c%13ccc(O)cc%13Oc%13cc(O)ccc%13%12)n(C)c%11)n(C)c%10)n9)n(C)c8)n(C)c7)n6)n(C)c5)n(C)c4)n3)n2)n1
[1]
  Drug uptake: Active

## CC(=O)Nc1cn(C)c(C(=O)Nc2cn(C)c(C(=O)NCCOCCOCC(=O)Nc3cn(C)c(C(=O)Nc4cc(C(=O)Nc5cc(C(=O)NCCCC(=O)Nc6cn(C)c(C(=O)Nc7cc(C(=O)NCCOCCOCC(=O)Nc8cn(C)c(C(=O)Nc9cc(C(=O)Nc%10cc(C(=O)NCCC(=O)NCCCN(C)CCCNC(=S)Nc%11ccc%12c(c%11)C(=O)OC%12%11c%12ccc(O)cc%12Oc%12cc(O)ccc%12%11)n(C)c%10)n(C)c9)n8)n(C)c7)n6)n(C)c5)n(C)c4)n3)n2)n1
[1]
  Drug uptake: Active

## CC(=O)Nc1cn(C)c(C(=O)Nc2cn(C)c(C(=O)NCCC(=O)NCCC(=O)Nc3cn(C)c(C(=O)Nc4cc(C(=O)Nc5cc(C(=O)NCCCC(=O)Nc6cn(C)c(C(=O)Nc7cc(C(=O)Nc8cc(C(=O)NCCC(=O)Nc9cn(C)c(C(=O)Nc%10cc(C(=O)Nc%11cc(C(=O)NCCC(=O)NCCCN(C)CCCN)n(C)c%11)n(C)c%10)n9)n(C)c8)n(C)c7)n6)n(C)c5)n(C)c4)n3)n2)n1
[2]
  Kd: 15 nM
[3]
  Ka: 1.3 ×10⁵ /Ms
[4]
  Kd: 1.9 ×10⁻³ /s

## CC(=O)Nc1cn(C)c(C(=O)Nc2cn(C)c(C(=O)Nc3cc(C(=O)NCCC(=O)Nc4cn(C)c(C(=O)Nc5cc(C(=O)Nc6cc(C(=O)NCCCC(=O)Nc7cn(C)c(C(=O)Nc8cc(C(=O)Nc9cc(C(=O)NCCC(=O)Nc%10cn(C)c(C(=O)Nc%11cc(C(=O)Nc%12cc(C(=O)NCCC(=O)NCCCN(C)CCCN)n(C)c%12)n(C)c%11)n%10)n(C)c9)n(C)c8)n7)n(C)c6)n(C)c5)n4)n(C)c3)n2)n1
[2]
  Kd: 5.9 nM
[3]
  Ka: 2.4 ×10⁵ /Ms
[5]
  solubility: 9.1 mM (≈ 17.8 mg/mL)
[4]
  Kd: 1.4 ×10⁻³ /s

## CC(=O)Nc1cn(C)c(C(=O)Nc2cn(C)c(C(=O)Nc3cc(C(=O)NCCC(=O)Nc4cn(C)c(C(=O)Nc5cc(C(=O)Nc6cc(C(=O)NCCCC(=O)Nc7cn(C)c(C(=O)Nc8cc(C(=O)Nc9cc(C(=O)NCCC(=O)Nc%10cn(C)c(C(=O)Nc%11cc(C(=O)Nc%12cc(C(=O)NCCC(=O)NCCCN(C)CCCNC(=S)Nc%13ccc%14c(c%13)C(=O)OC%14%13c%14ccc(O)cc%14Oc%14cc(O)ccc%14%13)n(C)c%12)n(C)c%11)n%10)n(C)c9)n(C)c8)n7)n(C)c6)n(C)c5)n4)n(C)c3)n2)n1
[1]
  Drug uptake: Active

## CC(=O)Nc1cn(C)c(C(=O)Nc2cn(C)c(C(=O)Nc3cc(C(=O)NCCC(=O)Nc4cn(C)c(C(=O)Nc5cc(C(=O)Nc6cc(C(=O)NCCCC(=O)Nc7cn(C)c(C(=O)Nc8cc(C(=O)NCCOCCOCC(=O)Nc9cn(C)c(C(=O)Nc%10cc(C(=O)Nc%11cc(C(=O)NCCC(=O)NCCCN(C)CCCN)n(C)c%11)n(C)c%10)n9)n(C)c8)n7)n(C)c6)n(C)c5)n4)n(C)c3)n2)n1
[2]
  Kd: 250 nM
[3]
  Ka: 1 ×10⁴ /Ms
[4]
  Kd: 4.5 ×10⁻³ /s

## CC(=O)Nc1cn(C)c(C(=O)Nc2cn(C)c(C(=O)NCCC(=O)NCCC(=O)Nc3cn(C)c(C(=O)Nc4cc(C(=O)Nc5cc(C(=O)NCCCC(=O)Nc6cn(C)c(C(=O)Nc7cc(C(=O)Nc8cc(C(=O)NCCC(=O)Nc9cn(C)c(C(=O)Nc%10cc(C(=O)Nc%11cc(C(=O)NCCC(=O)NCCCN(C)CCCNC(=O)CCOCCOCCOCCOCCOCCOCCOCCOCCOCCOCCOCCOCCNC(=O)CCCC[C@@H]%12SC[C@@H]%13NC(=O)N[C@@H]%13%12)n(C)c%11)n(C)c%10)n9)n(C)c8)n(C)c7)n6)n(C)c5)n(C)c4)n3)n2)n1
[6]
  Activity: Active
[7]
  Activity: Active
[8]
  Activity: Active
[9]
  Activity: Active
[10]
  Activity: Active
[11]
  Activity: Active
[12]
  Activity: Active
[13]
  Activity: Active
[14]
  Activity: Active
[15]
  Activity: Active

## CC(=O)Nc1cn(C)c(C(=O)Nc2cn(C)c(C(=O)NCCOCCOCC(=O)Nc3cn(C)c(C(=O)Nc4cc(C(=O)Nc5cc(C(=O)NCCCC(=O)Nc6cn(C)c(C(=O)Nc7cc(C(=O)NCCOCCOCC(=O)Nc8cn(C)c(C(=O)Nc9cc(C(=O)Nc%10cc(C(=O)NCCC(=O)NCCCN(C)CCCNC(=O)CCOCCOCCOCCOCCOCCOCCOCCOCCOCCOCCOCCOCCNC(=O)CCCC[C@@H]%11SC[C@@H]%12NC(=O)N[C@@H]%12%11)n(C)c%10)n(C)c9)n8)n(C)c7)n6)n(C)c5)n(C)c4)n3)n2)n1
[16]
  Activity: Active
[17]
  Activity: Active
[18]
  Activity: Active
[19]
  Activity: Active
[20]
  Activity: Active
[21]
  Activity: Active
[22]
  Activity: Active
[23]
  Activity: Active
[24]
  Activity: Active
[25]
  Activity: Active

## CC(=O)Nc1cn(C)c(C(=O)Nc2cn(C)c(C(=O)NCCOCCOCC(=O)Nc3cn(C)c(C(=O)Nc4cc(C(=O)Nc5cc(C(=O)NCCCC(=O)Nc6cn(C)c(C(=O)Nc7cc(C(=O)Nc8cc(C(=O)NCCC(=O)Nc9cn(C)c(C(=O)Nc%10cc(C(=O)Nc%11cc(C(=O)NCCC(=O)NCCCN(C)CCCN)n(C)c%11)n(C)c%10)n9)n(C)c8)n(C)c7)n6)n(C)c5)n(C)c4)n3)n2)n1
[2]
  Kd: 18 nM
[3]
  Ka: 1 ×10⁵ /Ms
[5]
  solubility: 12.2 mM (≈ 23.3 mg/mL)
[4]
  Kd: 1.8 ×10⁻³ /s

## CC(=O)Nc1cn(C)c(C(=O)Nc2cn(C)c(C(=O)NCCOCCOCC(=O)Nc3cn(C)c(C(=O)Nc4cc(C(=O)Nc5cc(C(=O)NCCCC(=O)Nc6cn(C)c(C(=O)Nc7cc(C(=O)NCCOCCOCC(=O)Nc8cn(C)c(C(=O)Nc9cc(C(=O)Nc%10cc(C(=O)NCCC(=O)NCCCN(C)CCCN)n(C)c%10)n(C)c9)n8)n(C)c7)n6)n(C)c5)n(C)c4)n3)n2)n1
[2]
  Kd: 16 nM
[3]
  Ka: 1.8 ×10⁴ /Ms
[5]
  solubility: 13.9 mM (≈ 25.9 mg/mL)
[4]
  Kd: 3 ×10⁻⁴ /s

## CC(=O)Nc1cn(C)c(C(=O)Nc2cn(C)c(C(=O)Nc3cc(C(=O)NCCC(=O)Nc4cn(C)c(C(=O)Nc5cc(C(=O)Nc6cc(C(=O)NCCCC(=O)Nc7cn(C)c(C(=O)Nc8cc(C(=O)Nc9cc(C(=O)NCCC(=O)Nc%10cn(C)c(C(=O)Nc%11cc(C(=O)Nc%12cc(C(=O)NCCC(=O)NCCCN(C)CCCNC(=O)CCOCCOCCOCCOCCOCCOCCOCCOCCOCCOCCOCCOCCNC(=O)CCCC[C@@H]%13SC[C@@H]%14NC(=O)N[C@@H]%14%13)n(C)c%12)n(C)c%11)n%10)n(C)c9)n(C)c8)n7)n(C)c6)n(C)c5)n4)n(C)c3)n2)n1
[26]
  Activity: Active
[27]
  Activity: Active
[28]
  Activity: Active
[29]
  Activity: Active
[30]
  Activity: Active
[31]
  Activity: Active
[32]
  Activity: Active
[33]
  Activity: Active
[34]
  Activity: Active
[35]
  Activity: Active
